# Where a name gives a salt, the structure may show the parent alone. ± gives the standard error.
# Test system: 621-102 (TSC2-deficient)
# Assay: relative viability vs DMSO; higher = less cytotoxic
# Details: 0.1 µM; serum: 10% FBS; 72 h
# 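Also: immortalized renal angiomyolipoma cells stably carrying empty vector or TSC2, dosed in 384-well plates in DMEM, viability normalized to vehicle-treated wells within each plate.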
row,SMILES,relative viability [%]
1,CC1(C)CCC(c2ccc(Cl)cc2)=C(CN2CCN(c3ccc(C(=O)NS(=O)(=O)c4ccc(N[C@H](CCN5CCOCC5)CSc5ccccc5)c(S(=O)(=O)C(F)(F)F)c4)cc3)CC2)C1 [ABT-263 (Navitoclax)],104 ± 3.3
2,COc1ccc(S(=O)(=O)Nc2cccnc2Nc2ccc(O)cc2)cc1 [ABT-751],110 ± 5.1
3,Cc1ccc(F)c(NC(=O)Nc2ccc(-c3cccc4[nH]nc(N)c34)cc2)c1 [ABT-869],108 ± 5.5
4,C[C@]1(c2nc3c(C(N)=O)cccc3[nH]2)CCCN1 [ABT-888],120 ± 1.6
5,CC(C)(C)c1cc(NC(=O)Nc2ccc(-c3cn4c(n3)sc3cc(OCCN5CCOCC5)ccc34)cc2)no1 [AC-220],84.9 ± 5.7
6,N#C/C(=C\c1ccc(O)c(O)c1)C(=O)NCc1ccccc1 [AG-490],104 ± 2.4
7,Cc1csc(-c2nnc(Nc3ccc(Oc4ncccc4-c4ccnc(N)n4)cc3)c3ccccc23)c1 [AMG900],83.24 ± 0.43
8,CC(C)[C@H](C(=O)Nc1ccc(C(=O)NO)cc1)c1ccccc1 [AR-42 (HDAC-42)],82.4 ± 0.9
9,Clc1ccc(C2(c3ccc(-c4cn[nH]c4)cc3)CCNCC2)cc1 [AT7867],95.8 ± 1.7
10,COc1cc2nccc(Oc3ccc(NC(=O)Nc4cc(C)on4)c(Cl)c3)c2cc1OC [AV-951(Tivozanib)],111 ± 2
11,Cc1cc(Nc2nc(N[C@@H](C)c3ccc(F)cc3)c(C#N)cc2F)n[nH]1 [AZ 960],104 ± 2.7
12,CCN(CCO)CCCOc1ccc2c(Nc3cc(CC(=O)Nc4cccc(F)c4)[nH]n3)ncnc2c1 [AZD1152-HQPA (Barasertib)],79.4 ± 1.5
13,Cc1cc(Nc2nc(N[C@@H](C)c3ncc(F)cn3)ncc2Cl)[nH]n1 [AZD1480],100.8 ± 0.59
14,O=C(c1cc(Cc2n[nH]c(=O)c3ccccc23)ccc1F)N1CCN(C(=O)C2CC2)CC1 [AZD2281 (Olaparib)],120 ± 2.8
15,Cc1ncc(-c2ccnc(Nc3ccc(S(C)(=O)=O)cc3)n2)n1C(C)C [AZD5438],99.55 ± 0.14
16,Cn1cnc2c(F)c(Nc3ccc(Br)cc3Cl)c(C(=O)NOCCO)cc21 [AZD6244 (Selumetinib)],98.9 ± 5.4
17,COc1ccc(-c2ccc3c(N4CCOC[C@@H]4C)nc(N4CCOC[C@@H]4C)nc3n2)cc1CO [AZD8055],39.8 ± 0.67
18,Cc1cc(C(=O)NOCCO)c(Nc2ccc(I)cc2F)n(C)c1=O [AZD8330],96.05 ± 0.59
19,CNC(=O)CN1CCC(Oc2cc3c(Nc4cccc(Cl)c4F)ncnc3cc2OC)CC1 [AZD8931],96.61 ± 0.73
20,CC(=O)O[C@H]1CC[C@@]2(C)C(=CC[C@@H]3[C@@H]2CC[C@]2(C)C(c4cccnc4)=CC[C@@H]32)C1 [Abiraterone Acetate (CB7630)],97.3 ± 2.7

row,SMILES,relative viability [%]
1,CC(=O)Nc1ccccc1 [Acetanilide],92 ± 3
2,Nc1[nH]cnc2ncnc1-2 [Adenine HCl],97.386 ± 0.086
3,Nc1[nH]cnc2ncnc1-2 [Adenine],97.9 ± 2.6
4,COc1cccc2c1C(=O)c1c(O)c3c(c(O)c1C2=O)C[C@@](O)(C(=O)CO)C[C@@H]3O[C@H]1C[C@H](N)[C@H](O)[C@H](C)O1 [Adriamycin],65.1 ± 2.7
5,NCCCC(O)(P(=O)(O)O)P(=O)(O)O [Alendronate Sodium],99.1 ± 5.1
6,COCCCOc1cc(C[C@@H](C[C@H](N)[C@@H](O)C[C@H](C(=O)NCC(C)(C)C(N)=O)C(C)C)C(C)C)ccc1OC [Aliskiren hemifumarate],112 ± 1.9
7,O=C1c2ccccc2C(=O)c2c1ccc(O)c2O [Alizarin],105 ± 1.5
8,Oc1ncnc2[nH]ncc12 [Allopurinol],91.9 ± 0.92
9,NC12CC3CC(CC(C3)C1)C2 [Amantadine HCl (Symmetrel)],98.5 ± 3.3
10,CC(NC(C)(C)C)C(=O)c1cccc(Cl)c1 (stereo not drawn) [Amfebutamone],112 ± 2.4
11,CCN1CCCC1CNC(=O)c1cc(S(=O)(=O)CC)c(N)cc1OC (stereo not drawn) [Amisulpride],105 ± 3
12,CCOC(=O)C1=C(COCCN)NC(C)=C(C(=O)OC)C1c1ccccc1Cl (stereo not drawn) [Amlodipine besylate],71.3 ± 8.8
13,CC(C)(C#N)c1cc(Cn2cncn2)cc(C(C)(C)C#N)c1 [Anastrozole (Arimidex)],106 ± 2.2
14,N#CC1(c2ccc(NC(=O)c3cccnc3NCc3ccncc3)cc2)CCCC1 [Apatinib],111 ± 4.4
15,O=c1cc(-c2ccc(O)cc2)oc2cc(O)cc(O)c12 [Apigenin],113 ± 5.3
16,COc1ccc(-n2nc(C(N)=O)c3c2C(=O)N(c2ccc(N4CCCCC4=O)cc2)CC3)cc1 [Apixaban],108 ± 3.1
17,COc1cc(OC)c(OC)cc1C=O [Asaraldehyde],96.2 ± 1.4
18,CN1CC2c3ccccc3Oc3ccc(Cl)cc3C2C1 (stereo not drawn) [Asenapine maleate],105 ± 5.3
19,CN1[C@@H]2CC[C@H]1C[C@@H](OC(=O)C(CO)c1ccccc1)C2 (stereo partly drawn) [Atropine sulfate monohydrate],79.6 ± 6.8

# Same assay, conditions: 1 µM; serum: 10% FBS; 72 h
row,SMILES,relative viability [%]
1,CC1(C)CCC(c2ccc(Cl)cc2)=C(CN2CCN(c3ccc(C(=O)NS(=O)(=O)c4ccc(N[C@H](CCN5CCOCC5)CSc5ccccc5)c(S(=O)(=O)C(F)(F)F)c4)cc3)CC2)C1 [ABT-263 (Navitoclax)],118.5 ± 0.83
2,COc1ccc(S(=O)(=O)Nc2cccnc2Nc2ccc(O)cc2)cc1 [ABT-751],44.8 ± 1.6
3,Cc1ccc(F)c(NC(=O)Nc2ccc(-c3cccc4[nH]nc(N)c34)cc2)c1 [ABT-869],107 ± 2.2
4,C[C@]1(c2nc3c(C(N)=O)cccc3[nH]2)CCCN1 [ABT-888],122 ± 2.6
5,CC(C)(C)c1cc(NC(=O)Nc2ccc(-c3cn4c(n3)sc3cc(OCCN5CCOCC5)ccc34)cc2)no1 [AC-220],70.1 ± 1.2
6,N#C/C(=C\c1ccc(O)c(O)c1)C(=O)NCc1ccccc1 [AG-490],99.2 ± 6.6
7,Cc1csc(-c2nnc(Nc3ccc(Oc4ncccc4-c4ccnc(N)n4)cc3)c3ccccc23)c1 [AMG900],78.91 ± 0.56
8,CC(C)[C@H](C(=O)Nc1ccc(C(=O)NO)cc1)c1ccccc1 [AR-42 (HDAC-42)],61.7 ± 2.2
9,Clc1ccc(C2(c3ccc(-c4cn[nH]c4)cc3)CCNCC2)cc1 [AT7867],85.23 ± 0.13
10,COc1cc2nccc(Oc3ccc(NC(=O)Nc4cc(C)on4)c(Cl)c3)c2cc1OC [AV-951(Tivozanib)],107 ± 2.7
11,Cc1cc(Nc2nc(N[C@@H](C)c3ccc(F)cc3)c(C#N)cc2F)n[nH]1 [AZ 960],47.1 ± 3.6
12,CCN(CCO)CCCOc1ccc2c(Nc3cc(CC(=O)Nc4cccc(F)c4)[nH]n3)ncnc2c1 [AZD1152-HQPA (Barasertib)],68.2 ± 0.79
13,Cc1cc(Nc2nc(N[C@@H](C)c3ncc(F)cn3)ncc2Cl)[nH]n1 [AZD1480],103 ± 3.8
14,O=C(c1cc(Cc2n[nH]c(=O)c3ccccc23)ccc1F)N1CCN(C(=O)C2CC2)CC1 [AZD2281 (Olaparib)],114.2 ± 0.69
15,Cc1ncc(-c2ccnc(Nc3ccc(S(C)(=O)=O)cc3)n2)n1C(C)C [AZD5438],88.1 ± 1.8
16,Cn1cnc2c(F)c(Nc3ccc(Br)cc3Cl)c(C(=O)NOCCO)cc21 [AZD6244 (Selumetinib)],84.7 ± 1.2
17,COc1ccc(-c2ccc3c(N4CCOC[C@@H]4C)nc(N4CCOC[C@@H]4C)nc3n2)cc1CO [AZD8055],21.4 ± 2.2
18,Cc1cc(C(=O)NOCCO)c(Nc2ccc(I)cc2F)n(C)c1=O [AZD8330],65.9 ± 1.7
19,CNC(=O)CN1CCC(Oc2cc3c(Nc4cccc(Cl)c4F)ncnc3cc2OC)CC1 [AZD8931],99.6 ± 2.1

# — the supplement of paper PMC8960247
